Reference: patent US20260274866A1, “PYRIDO[4,3-D]PYRIMIDINE DERIVATIVES AS MUTANT KRAS G12C INHIBITORS FOR THE TREATMENT OF CANCER” (Frontier Medicines Corporation, priority 2023, published 2026)
pIC50: −log10 of the molar value.

Target: T1, KRAS G12C (GMPPNP-loaded) and cRAF (Ras-binding domain) interaction (Homo sapiens, UniProt P01116, C118S/C51S/C80L/G12C)
T1 construct: truncated version comprising amino acids 1-169
Assay: AlphaScreen inhibition of KRAS G12C and cRAF binding
Format: biochemical
Conditions: KRAS G12C preloaded with GTP analogue GMPPNP, 2 hours preincubation
Method: The AlphaScreen technology was used to determine IC50s for compound inhibition of KRAS G12C (present as the Cys-light (C51S, C80L and C118S), truncated version comprising amino acids 1-169) and cRAF interaction. Compounds were diluted in 100% DMSO and each compound concentration was spotted at 200 nl/well onto low volume, white 384 well plates. The KRAS G12C contained a biotin-AviTag and the cRaf, as Ras-binding domain (amino acids 50-131, RBD), was GST-tagged. KRAS G12C was preloaded with the GTP analogue Guanosine 5′-[β,γ-imido]triphosphate (GMPPNP). The KRAS G12C was diluted in 25 mM Hepes, pH 7.4, 150 mM NaCl, 5 mM MgCl2, 0.01% TritonX-100 and 10 μM GMPPNP and added at 10 ul/well to compound-spotted plates resulting in a DMSO concentration of 2%. Plates were incubated for 2 hours. A mixture of RBD and the AlphaScreen streptavidin donor and glutathione acceptor beads diluted in 25 mM Hepes, pH 7.4, 150 mM NaCl, 5 mM MgCl2, 0.01% TritonX-100 and 2% DMSO was then added at 10 ul/well and incubated for 60-90 minutes before the samples were read for emission at 570 nm after excitation of the donor beads at 680 nm. All incubations were performed at room temperature. The final top compound concentration was 50 μM with 1:3 titrations for 10-point dose response curves. Final assay conditions were 0.5 nM KRAS G12C, 0.75 nM RBD and 5 ug/ml each of AlphaScreen donor and acceptor beads. IC50s were determined using nonlinear regression fit of [inhibitor] vs. response (4 parameters).
A counter assay was also set up to rule out inhibitors of the AlphaScreen technology itself. Compound plates were incubated for 2 hours as above with buffer only. The AlphaScreen beads were added as above except biotin-AviTag-GST was substituted for the RBD. Samples were read and analyzed as above.

T1 sequence (P01116 1-169 isoform P01116-2 G12C/C51S/C80L/C118S): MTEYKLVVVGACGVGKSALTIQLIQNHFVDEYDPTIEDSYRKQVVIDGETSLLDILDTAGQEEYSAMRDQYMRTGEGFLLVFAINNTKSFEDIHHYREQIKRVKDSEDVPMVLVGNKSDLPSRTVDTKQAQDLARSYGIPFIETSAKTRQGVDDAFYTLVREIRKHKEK

| pIC50 | Compound |
| --- | --- |
| > 8.00 | CC(/C=C/C(=O)N1CCN(c2nc(OC[C@@]34CCCN3C[C@H](F)C4)nc3c(F)c(-c4cccc5cccc(Cl)c45)ncc23)C[C@@H]1CC#N)N1[C@@H]2CC[C@H]1COC2 (stereo partly shown) [Compound 17] |
| ≤ 6.30 | C[C@@H](/C=C/C(=O)N1CC[C@@H](N(C)c2nc(OC[C@@]34CCCN3C[C@H](F)C4)nc3c(F)c(-c4cccc5ccc(F)c(Cl)c45)ncc23)C1)N(C)C [Compound 18] |
| 7.00 to 8.00 | CO[C@H]1CCN([C@@H](C)/C=C/C(=O)N2CCN(c3nc(OC[C@@]45CCCN4C[C@H](F)C5)nc4c(F)c(-c5cccc6ccc(F)c(Cl)c56)ncc34)C[C@@H]2CC#N)C1 [Compound 19, 2-((S)-4-(7-(8-chloro-7-fluoronaphthalen-1-yl)-8-fluoro-2-(((2R,7aS)-2-fluorotetrahydro-1H-pyrrolizin-7a(5H)-yl)methoxy)pyrido[4,3-d]pyrimidin-4-yl)-1-((S,E)-4-((S)-3-methoxypyrrolidin-1-yl)pent-2-enoyl)piperazin-2-yl)acetonitrile] |
| > 8.00 | CO[C@H]1CCN([C@H](C)/C=C/C(=O)N2CCN(c3nc(OC[C@@]45CCCN4C[C@H](F)C5)nc4c(F)c(-c5cccc6ccc(F)c(Cl)c56)ncc34)C[C@@H]2CC#N)C1 [Compound 20, 2-((S)-4-(7-(8-chloro-7-fluoronaphthalen-1-yl)-8-fluoro-2-(((2R,7aS)-2-fluorotetrahydro-1H-pyrrolizin-7a(5H)-yl)methoxy)pyrido[4,3-d]pyrimidin-4-yl)-1-((R,E)-4-((S)-3-methoxypyrrolidin-1-yl)pent-2-enoyl)piperazin-2-yl)acetonitrile] |
| 7.00 to 8.00 | C[C@H](/C=C/C(=O)N1CCN(c2nc(OCC34CCCN3CCC4)nc3c2CCN(c2cccc4cccc(Cl)c24)C3)C[C@@H]1CC#N)N1CCOCC1 [Compound 21] |
| 7.00 to 8.00 | C[C@@H](/C=C/C(=O)N1CCN(c2nc(OCC34CCCN3CCC4)nc3c2CCN(c2cccc4cccc(Cl)c24)C3)C[C@@H]1CC#N)N1CCOCC1 [Compound 22] |
| 7.00 to 8.00 | C[C@H](/C=C/C(=O)N1CCN(c2nc(OC[C@@]34CCCN3C[C@H](F)C4)nc3c(F)c(-c4cccc5cccc(Cl)c45)ncc23)C[C@@H]1CC#N)N1CCOCC1 [Compound 23] |
| 7.00 to 8.00 | C[C@@H](/C=C/C(=O)N1CCN(c2nc(OC[C@@]34CCCN3C[C@H](F)C4)nc3c(F)c(-c4cccc5cccc(Cl)c45)ncc23)C[C@@H]1CC#N)N1CCOCC1 [Compound 24] |
| 7.00 to 8.00 | C[C@H](/C=C/C(=O)N1CCN(c2nc(OC[C@@]34CCCN3C[C@H](F)C4)nc3c(F)c(-c4cccc5cccc(Cl)c45)ncc23)C[C@@H]1CC#N)N1C[C@H]2C[C@@H]1CO2 [Compound 25] |
| 7.00 to 8.00 | C[C@@H](/C=C/C(=O)N1CCN(c2nc(OC[C@@]34CCCN3C[C@H](F)C4)nc3c(F)c(-c4cccc5cccc(Cl)c45)ncc23)C[C@@H]1CC#N)N1C[C@H]2C[C@@H]1CO2 [Compound 26] |
| 7.00 to 8.00 | CC(/C=C/C(=O)N1CCN(c2nc(OC[C@@]34CCCN3C[C@H](F)C4)nc3c(F)c(-c4cccc5cccc(Cl)c45)ncc23)C[C@@H]1CC#N)N1C2COCC1C2 (stereo partly shown) [Compound 27] |
| 7.00 to 8.00 | CC(/C=C/C(=O)N1CCN(c2nc(OC[C@@]34CCCN3C[C@H](F)C4)nc3c(F)c(-c4cccc5cccc(Cl)c45)ncc23)C[C@@H]1CC#N)N1CC[C@H](F)C1 (stereo partly shown) [Compound 28] |

Continued, compound first:

| Compound | pIC50 |
| --- | --- |
| C[C@H](/C=C/C(=O)N1CC[C@@H](N(C)c2nc(OC[C@@]34CCCN3C[C@H](F)C4)nc3c(F)c(-c4cccc5cccc(Cl)c45)ncc23)C1)N(C)C [Compound 1] | 6.30 to 7.00 |
| C[C@@H](/C=C/C(=O)N1CC[C@@H](N(C)c2nc(OC[C@@]34CCCN3C[C@H](F)C4)nc3c(F)c(-c4cccc5cccc(Cl)c45)ncc23)C1)N(C)C [Compound 2] | > 8.00 |
| CC(/C=C/C(=O)N1CCN(c2nc(OCC34CCCN3CCC4)nc3c2CCN(c2cccc4cccc(Cl)c24)C3)C[C@@H]1CC#N)N1CCOCC1 (stereo partly shown) [Compound 3] | 7.00 to 8.00 |
| C[C@H](/C=C/C(=O)N1CCN(c2nc(OCC34CCCN3CCC4)nc3c2CCN(c2cccc4cccc(Cl)c24)C3)C[C@@H]1CC#N)N(C)C [Compound 4] | > 8.00 |
| C[C@@H](/C=C/C(=O)N1CCN(c2nc(OCC34CCCN3CCC4)nc3c2CCN(c2cccc4cccc(Cl)c24)C3)C[C@@H]1CC#N)N(C)C [Compound 5] | 7.00 to 8.00 |
| C[C@H](/C=C/C(=O)N1CC[C@@H](N(C)c2nc(OC[C@@]34CCCN3C[C@H](F)C4)nc3c(F)c(-c4cccc5ccc(F)c(Cl)c45)ncc23)C1)N(C)C [Compound 6] | 6.30 to 7.00 |
| C[C@H](/C=C/C(=O)N1CC[C@@H](N(C)c2nc(OC[C@@]34CCCN3C[C@H](F)C4)nc3c(F)c(-c4cccc5ccc(F)c(F)c45)ncc23)C1)N(C)C [Compound 7, (R,E)-1-((R)-3-((7-(7,8-difluoronaphthalen-1-yl)-8-fluoro-2-(((2R,7aS)-2-fluorotetrahydro-1H-pyrrolizin-7a(5H)-yl)methoxy)pyrido[4,3-d]pyrimidin-4-yl)(methyl)amino)pyrrolidin-1-yl)-4-(dimethylamino)pent-2-en-1-one] | 6.30 to 7.00 |
| C[C@@H](/C=C/C(=O)N1C[C@H](F)[C@@H](N(C)c2nc(OC[C@@]34CCCN3C[C@H](F)C4)nc3c(F)c(-c4cccc5cccc(Cl)c45)ncc23)C1)N(C)C [Compound 8] | 7.00 to 8.00 |
| C[C@H](/C=C/C(=O)N1C[C@H](F)[C@@H](N(C)c2nc(OC[C@@]34CCCN3C[C@H](F)C4)nc3c(F)c(-c4cccc5cccc(Cl)c45)ncc23)C1)N(C)C [Compound 9] | 7.00 to 8.00 |
| C[C@@H](/C=C/C(=O)N1CC[C@@H](N(C)c2nc(OC[C@@]34CCCN3C[C@H](F)C4)nc3c(F)c(-c4cccc5ccc(F)c(F)c45)ncc23)C1)N(C)C [Compound 10, (S,E)-1-((R)-3-((7-(7,8-difluoronaphthalen-1-yl)-8-fluoro-2-(((2R,7aS)-2-fluorotetrahydro-1H-pyrrolizin-7a(5H)-yl)methoxy)pyrido[4,3-d]pyrimidin-4-yl)(methyl)amino)pyrrolidin-1-yl)-4-(dimethylamino)pent-2-en-1-one] | > 8.00 |
| CC(/C=C/C(=O)N1CCN(c2nc(OC[C@@]34CCCN3C[C@H](F)C4)nc3c(F)c(-c4cccc5cccc(Cl)c45)ncc23)C[C@@H]1CC#N)N1CCOCC1 (stereo partly shown) [Compound 11] | 7.00 to 8.00 |
| C[C@H](/C=C/C(=O)N1CC[C@@H](N(C)c2nc(OC[C@@]34CCCN3C[C@H](F)C4)nc3c(F)c(-c4cccc5cccc(Cl)c45)ncc23)C1)N1CCC1 [Compound 12] | 7.00 to 8.00 |
| CO[C@H]1CCN(C(C)/C=C/C(=O)N2CCN(c3nc(OC[C@@]45CCCN4C[C@H](F)C5)nc4c(F)c(-c5cccc6ccc(F)c(Cl)c56)ncc34)C[C@@H]2CC#N)C1 (stereo partly shown) [Compound 13] | > 8.00 |
| CO[C@@H]1CCN(C(C)/C=C/C(=O)N2CCN(c3nc(OC[C@@]45CCCN4C[C@H](F)C5)nc4c(F)c(-c5cccc6ccc(F)c(Cl)c56)ncc34)C[C@@H]2CC#N)C1 (stereo partly shown) [Compound 14] | > 8.00 |
| CC(/C=C/C(=O)N1CCN(c2nc(OC[C@@]34CCCN3C[C@H](F)C4)nc3c(F)c(-c4cccc5cccc(Cl)c45)ncc23)C[C@@H]1CC#N)N1C[C@@H]2C[C@H]1CO2 (stereo partly shown) [Compound 15] | 7.00 to 8.00 |
| CC(/C=C/C(=O)N1CCN(c2nc(OC[C@@]34CCCN3C[C@H](F)C4)nc3c(F)c(-c4cccc5cccc(Cl)c45)ncc23)C[C@@H]1CC#N)N1C[C@H]2C[C@@H]1CO2 (stereo partly shown) [Compound 16] | 7.00 to 8.00 |
